Experimental data reported in ChEMBL document CHEMBL6071179, “New LsrK Ligands as AI-2 Quorum Sensing Interfering Compounds against Biofilm Formation” (J Med Chem, 2024).
Activity calls are given as the source filed them. The rule behind the calls is not given here.

Legend:
Staphylococcus aureus [1] = assay: Antibiofilm activity against Staphylococcus aureus BHICC at 500 ug/ml incubated for 24 hrs by crystal violet staining based microplate reader assay; format: functional; details: dose 500 µg/ml
Pseudomonas aeruginosa [2] = assay: Antibiofilm activity against Pseudomonas aeruginosa PAO1 at 500 ug/ml incubated for […] by crystal violet staining based microplate reader assay; format: functional; details: dose 500 µg/ml
[3] = target: T1, Autoinducer-2 kinase (Bacteria) (UniProt P77432); assay: Binding affinity to LsrK (unknown origin) assessed as reduction in fluorescence intensity by intrinsic tryptophan fluorescence spectroscopy
T1 sequence (whole entry): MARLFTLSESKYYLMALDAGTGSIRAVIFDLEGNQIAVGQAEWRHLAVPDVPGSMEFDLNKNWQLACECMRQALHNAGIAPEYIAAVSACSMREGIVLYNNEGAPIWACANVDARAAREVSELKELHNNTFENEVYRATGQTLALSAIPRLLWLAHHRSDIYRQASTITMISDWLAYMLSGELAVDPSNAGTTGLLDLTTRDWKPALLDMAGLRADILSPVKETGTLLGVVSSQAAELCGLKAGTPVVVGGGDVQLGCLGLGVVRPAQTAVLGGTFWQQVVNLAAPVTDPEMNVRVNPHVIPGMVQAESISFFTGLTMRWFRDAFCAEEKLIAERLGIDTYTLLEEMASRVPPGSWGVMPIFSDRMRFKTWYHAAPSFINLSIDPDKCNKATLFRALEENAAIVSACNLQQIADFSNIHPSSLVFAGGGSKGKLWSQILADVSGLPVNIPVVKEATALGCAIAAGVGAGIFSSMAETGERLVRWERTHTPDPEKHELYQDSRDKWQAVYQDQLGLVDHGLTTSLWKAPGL

[4] = target: T1, Autoinducer-2 kinase (Bacteria); assay: Binding affinity to LSRK (unknown origin) assessed as change in melting temperature at 500 ug/ml by SYPRO orange staining based differential scanning fluorimetry assay; details: dose 500.0 µg/ml
[5] = target: T1, Autoinducer-2 kinase (Bacteria); assay: Binding affinity to LsrK (unknown origin) assessed as reduction in fluorescence intensity at 1 uM by intrinsic tryptophan fluorescence spectroscopy
[6] = target: T1, Autoinducer-2 kinase (Bacteria); assay: Binding affinity to LsrK (unknown origin) assessed as decrease in ellipticity at 2 to 20 uM by Far-UV CD spectra; details: dose 2-20 µM
[7] = Inhibition of Vibrio harveyi BB120 AI-2 mediated Quorum sensing system assessed as reduction in bioluminescence incubated for 8 hrs
Pseudomonas aeruginosa [8] = assay: Inhibition of Pseudomonas aeruginosa bacterial growth at 500 ug/ml incubated for 20 hrs by microplate reader assay; format: functional, organism-based; details: dose 500.0 µg/ml
[9] = Inhibition of Vibrio harveyi BB170 AI-2 mediated Quorum sensing system assessed as reduction in bioluminescence incubated for 8 hrs
Staphylococcus aureus [10] = assay: Inhibition of Staphylococcus aureus bacterial growth at 500 ug/ml incubated for 20 hrs by microplate reader assay; format: functional, organism-based; details: dose 500.0 µg/ml
[11] = target: T1, Autoinducer-2 kinase (Bacteria); assay: Binding affinity to LSRK (unknown origin) assessed as change in melting temperature at 500 ug/ml in presence of ATP by SYPRO orange staining based differential scanning fluorimetry assay; details: dose 500.0 µg/ml
Vibrio harveyi [12] = assay: Inhibition of Vibrio harveyi BB120 bacterial growth at 4 to 500 ug/ml incubated for 24 hrs by resazurin dye based microplate reader assay; format: functional, organism-based; details: dose 4-500 µg/ml
[13] = Inhibition of Vibrio harveyi BB886 AI-1 mediated Quorum sensing system assessed as reduction in bioluminescence incubated for 8 hrs
Vibrio harveyi [14] = assay: Inhibition of Vibrio harveyi BB886 bacterial growth at 4 to 500 ug/ml incubated for 24 hrs by resazurin dye based microplate reader assay; format: functional, organism-based; details: dose 4-500 µg/ml
[15] = target: T1, Autoinducer-2 kinase (Bacteria); assay: Binding affinity to LsrK (unknown origin) by STD NMR assay

CCOC(=O)N1CCC(=C2c3ccc(Cl)cc3CCc3cccnc32)CC1 [LORATADINE]
MBIC50 (Staphylococcus aureus [1]): 23 µg/mL

O=C(N[C@@H](Cc1ccccc1)C(=O)O)C1COC2(CCCCC2)OC1
MBIC50 (Staphylococcus aureus [1]): 20.6 µg/mL | MBIC50 (Pseudomonas aeruginosa [2]): 50 µg/mL

CC1(C)OC[C@H](C(=O)N[C@@H](Cc2ccccc2)C(=O)O)O1
Activity [3]: Dose-Dependent Effect | ΔTm [4]: > 1 °C | MBIC50 (Staphylococcus aureus [1]): 25.4 µg/mL | Flu intensity [5]: 6% | Activity [6]: Dose-Dependent Effect | MBIC50 (Pseudomonas aeruginosa [2]): 30.4 µg/mL

CC1(C)OC[C@@H](C(=O)N[C@@H](Cc2ccccc2)C(=O)O)O1
Activity [3]: Dose-Dependent Effect | ΔTm [4]: > 1 °C | MBIC50 (Staphylococcus aureus [1]): 26.3 µg/mL | Flu intensity [5]: 12% | Activity [6]: Dose-Dependent Effect | MBIC50 (Pseudomonas aeruginosa [2]): 34.4 µg/mL

O=C(NCc1ccccc1)C1COC2(CCCCC2)O1 (stereo not drawn)
MBIC50 (Staphylococcus aureus [1]): 1913 µg/mL

COC(=O)[C@H](C)NC(=O)[C@H](Cc1ccccc1)NC(=O)C1COC(C)(C)O1 (stereo partly drawn)
inhibition [7]: Active | inhibition (Pseudomonas aeruginosa [8]): inactive | inhibition [9]: Active | MBIC50 (Staphylococcus aureus [1]): 152.3 µg/mL | inhibition (Staphylococcus aureus [10]): inactive | ΔTm [11]: > 2 °C | inhibition (Vibrio harveyi [12]): inactive | inhibition [13]: inactive | inhibition (Vibrio harveyi [14]): inactive | MBIC50 (Pseudomonas aeruginosa [2]): 29.1 µg/mL

COC(=O)[C@H](C)NC(=O)[C@H](Cc1ccccc1)NC(=O)C1OCC2(CCCCC2)CO1
MBIC50 (Staphylococcus aureus [1]): 55.9 µg/mL | MBIC50 (Pseudomonas aeruginosa [2]): 483 µg/mL

CC1(C)OCC(C(=O)NCc2ccccc2)O1 (stereo not drawn)
MBIC50 (Pseudomonas aeruginosa [2]): 36.6 µg/mL

Cn1nc(C2COC3(CCCCC3)O2)cc1-c1ccccc1 (stereo not drawn)
inhibition (Pseudomonas aeruginosa [8]): inactive | MBIC50 (Staphylococcus aureus [1]): 121.4 µg/mL | inhibition (Staphylococcus aureus [10]): inactive | MBIC50 (Pseudomonas aeruginosa [2]): 373 µg/mL

O=C(NCCc1ccccc1)C1COC2(CCCCC2)OC1
inhibition [7]: Active | Activity [3]: Dose-Dependent Effect | inhibition (Pseudomonas aeruginosa [8]): inactive | ΔTm [4]: > 1 °C | inhibition [9]: Active | MBIC50 (Staphylococcus aureus [1]): 16.2 µg/mL | inhibition (Staphylococcus aureus [10]): inactive | Activity [15]: Active | Activity [6]: Dose-Dependent Effect | ΔTm [11]: > 2 °C | inhibition (Vibrio harveyi [12]): inactive | inhibition [13]: inactive | inhibition (Vibrio harveyi [14]): inactive | MBIC50 (Pseudomonas aeruginosa [2]): 6.2 µg/mL

CC1(C)OCC(C(=O)N[C@@H](Cc2ccccc2)C(=O)O)O1 (stereo partly drawn)
inhibition [7]: Active | inhibition (Pseudomonas aeruginosa [8]): inactive | inhibition [9]: Active | MBIC50 (Staphylococcus aureus [1]): 34.6 µg/mL | inhibition (Staphylococcus aureus [10]): inactive | ΔTm [11]: > 2 °C | inhibition (Vibrio harveyi [12]): inactive | inhibition [13]: inactive | inhibition (Vibrio harveyi [14]): inactive | MBIC50 (Pseudomonas aeruginosa [2]): 27.7 µg/mL

O=C(N[C@@H](Cc1ccccc1)C(=O)O)C1COC2(CCCCC2)O1 (stereo partly drawn)
inhibition (Pseudomonas aeruginosa [8]): inactive | MBIC50 (Staphylococcus aureus [1]): 61.5 µg/mL | inhibition (Staphylococcus aureus [10]): inactive | MBIC50 (Pseudomonas aeruginosa [2]): 46.2 µg/mL

CCCCCCCN(CCN(CC(=O)O)CC(=O)O)CC(=O)O
IC50 [9]: 400 nM

COC(=O)[C@H](Cc1ccccc1)NC(=O)C1COC2(CCCCC2)OC1
MBIC50 (Staphylococcus aureus [1]): 85.8 µg/mL

COC(=O)[C@H](C)NC(=O)[C@H](Cc1ccccc1)NC(=O)[C@H]1COC(C)(C)O1
Activity [3]: Dose-Dependent Effect | MBIC50 (Staphylococcus aureus [1]): 169.7 µg/mL | MBIC50 (Pseudomonas aeruginosa [2]): 31.7 µg/mL

O=C(NCc1ccccc1)C(O)CO (stereo not drawn)
MBIC50 (Staphylococcus aureus [1]): 128.2 µg/mL

COC(=O)[C@H](C)NC(=O)[C@H](Cc1ccccc1)NC(=O)[C@@H]1COC(C)(C)O1
Activity [3]: Dose-Dependent Effect | ΔTm [4]: > 1 °C | MBIC50 (Staphylococcus aureus [1]): 82.2 µg/mL | MBIC50 (Pseudomonas aeruginosa [2]): 25.4 µg/mL

Cn1nc(-c2ccccc2)cc1C1COC2(CCCCC2)O1 (stereo not drawn)
MBIC50 (Staphylococcus aureus [1]): 55.2 µg/mL

O=C(NCCc1ccccc1)C1COC2(CCCCC2)O1 (stereo not drawn)
MBIC50 (Staphylococcus aureus [1]): 92.3 µg/mL | MBIC50 (Pseudomonas aeruginosa [2]): 38.3 µg/mL

O=C(NCc1ccccc1)C1COC2(CCCCC2)OC1
MBIC50 (Pseudomonas aeruginosa [2]): 40.8 µg/mL

COC(=O)[C@H](Cc1ccccc1)NC(=O)C(O)CO (stereo partly drawn)
MBIC50 (Staphylococcus aureus [1]): 173 µg/mL

COC(=O)[C@H](Cc1ccccc1)NC(=O)C1COC2(CCCCC2)O1 (stereo partly drawn)
MBIC50 (Staphylococcus aureus [1]): 71.1 µg/mL | MBIC50 (Pseudomonas aeruginosa [2]): 60.5 µg/mL

c1ccc(-c2cc(C3COC4(CCCCC4)O3)[nH]n2)cc1 (stereo not drawn)
inhibition (Pseudomonas aeruginosa [8]): inactive | MBIC50 (Staphylococcus aureus [1]): 45.1 µg/mL | inhibition (Staphylococcus aureus [10]): inactive | MBIC50 (Pseudomonas aeruginosa [2]): 22.5 µg/mL

CC(=O)N[C@@H](CS)C(=O)O [ACETYLCYSTEINE]
MBIC50 (Pseudomonas aeruginosa [2]): 14 µg/mL
